This note sets out measurements from patent publication US11230547B2, “Purine inhibitors of human phosphatidylinositol 3-kinase delta” (Merck Sharp & Dohme Corp., priority 2017, dated 2022).

The structures appear in SMILES notation.

In one experiment the target is PI3Kdelta (Homo sapiens (Human), UniProt O00329). Kind of experiment: HTRF PI3K biochemical assay, delta isoform. As to conditions: 0.3 nM enzyme, 100 uM ATP, 5 uM PIP2, form screened per table. In outline: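 PI3Kδ at 0.3 nM preincubated 15 min with compound, then reacted 1 h at room temperature with 100 uM ATP and 5 uM PIP2. PIP3 product detected by competitive HTRF displacing biotin-PIP3 from GST-GRP1 PH domain, so signal falls with activity. 10-point 3-fold dose response.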
PI3Kdelta, sequence (O00329 whole entry, the tested form may be a part, canonical isoform): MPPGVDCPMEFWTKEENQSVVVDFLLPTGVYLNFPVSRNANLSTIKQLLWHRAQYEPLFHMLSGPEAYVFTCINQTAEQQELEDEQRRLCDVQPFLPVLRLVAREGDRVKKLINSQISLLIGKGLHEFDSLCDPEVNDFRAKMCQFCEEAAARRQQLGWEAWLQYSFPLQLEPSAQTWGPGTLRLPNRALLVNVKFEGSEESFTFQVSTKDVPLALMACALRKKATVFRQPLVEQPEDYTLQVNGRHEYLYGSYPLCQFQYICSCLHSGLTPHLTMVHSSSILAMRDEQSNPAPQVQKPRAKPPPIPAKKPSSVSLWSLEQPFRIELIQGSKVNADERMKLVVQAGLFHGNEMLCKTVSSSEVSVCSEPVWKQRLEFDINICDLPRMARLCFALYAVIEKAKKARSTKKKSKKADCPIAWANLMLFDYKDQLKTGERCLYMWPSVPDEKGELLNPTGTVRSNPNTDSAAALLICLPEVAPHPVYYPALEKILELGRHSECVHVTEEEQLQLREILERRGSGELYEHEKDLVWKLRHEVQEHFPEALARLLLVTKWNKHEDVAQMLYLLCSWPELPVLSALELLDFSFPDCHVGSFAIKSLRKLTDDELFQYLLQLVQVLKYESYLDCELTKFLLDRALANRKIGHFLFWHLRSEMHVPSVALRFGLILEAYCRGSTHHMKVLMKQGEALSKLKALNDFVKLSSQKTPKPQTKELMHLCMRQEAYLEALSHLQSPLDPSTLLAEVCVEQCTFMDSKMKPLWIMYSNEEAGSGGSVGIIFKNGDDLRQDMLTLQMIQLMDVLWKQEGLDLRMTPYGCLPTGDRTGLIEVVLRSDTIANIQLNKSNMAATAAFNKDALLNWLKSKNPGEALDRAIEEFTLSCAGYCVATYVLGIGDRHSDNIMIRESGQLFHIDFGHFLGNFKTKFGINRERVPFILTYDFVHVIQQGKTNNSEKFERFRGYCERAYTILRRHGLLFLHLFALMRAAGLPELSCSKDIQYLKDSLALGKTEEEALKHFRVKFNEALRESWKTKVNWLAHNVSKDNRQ
PI3Kdelta, sequence (P27986 whole entry partner, the tested form may be a part, canonical isoform): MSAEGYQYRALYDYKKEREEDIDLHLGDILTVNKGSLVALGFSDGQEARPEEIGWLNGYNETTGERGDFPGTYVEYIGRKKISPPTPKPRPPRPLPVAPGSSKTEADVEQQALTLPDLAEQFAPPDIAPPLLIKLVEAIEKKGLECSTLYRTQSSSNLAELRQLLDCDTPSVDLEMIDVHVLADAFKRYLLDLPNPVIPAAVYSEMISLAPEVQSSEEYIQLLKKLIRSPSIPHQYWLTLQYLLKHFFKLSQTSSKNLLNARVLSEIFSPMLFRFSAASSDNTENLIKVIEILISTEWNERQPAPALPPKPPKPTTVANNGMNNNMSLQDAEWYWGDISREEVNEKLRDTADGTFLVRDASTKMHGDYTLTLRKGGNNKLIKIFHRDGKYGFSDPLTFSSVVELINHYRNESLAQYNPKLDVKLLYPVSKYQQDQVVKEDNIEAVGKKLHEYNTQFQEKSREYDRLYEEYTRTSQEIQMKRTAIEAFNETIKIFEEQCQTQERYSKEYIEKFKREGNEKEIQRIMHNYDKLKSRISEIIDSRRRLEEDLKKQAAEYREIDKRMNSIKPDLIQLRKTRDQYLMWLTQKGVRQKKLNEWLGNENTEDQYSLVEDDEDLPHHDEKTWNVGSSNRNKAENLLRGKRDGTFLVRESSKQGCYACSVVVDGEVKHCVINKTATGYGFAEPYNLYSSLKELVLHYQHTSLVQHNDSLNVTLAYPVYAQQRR
For orientation: TR-FRET usually uses a lanthanide donor and a delayed reading to cut background.

A further experiment deals with PI3Kalpha (Homo sapiens (Human), UniProt P42336). Kind of experiment: HTRF PI3K biochemical assay, alpha isoform (selectivity versus delta). As to conditions: relative ratio PI3K-alpha IC50 value / PI3K-delta IC50 value. In outline:
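Recombinant human PI3Kα (0.5 nM) preincubated 15 min with compound, then reacted 1 h at room temperature with 100 uM ATP and 5 uM PIP2. PIP3 formation detected by HTRF competition with biotin-PIP3 for GST-GRP1 PH domain (Eu/APC, 665/620 nm); product lowers signal.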

PI3Kalpha, sequence (P42336 whole entry, the tested form may be a part, canonical isoform): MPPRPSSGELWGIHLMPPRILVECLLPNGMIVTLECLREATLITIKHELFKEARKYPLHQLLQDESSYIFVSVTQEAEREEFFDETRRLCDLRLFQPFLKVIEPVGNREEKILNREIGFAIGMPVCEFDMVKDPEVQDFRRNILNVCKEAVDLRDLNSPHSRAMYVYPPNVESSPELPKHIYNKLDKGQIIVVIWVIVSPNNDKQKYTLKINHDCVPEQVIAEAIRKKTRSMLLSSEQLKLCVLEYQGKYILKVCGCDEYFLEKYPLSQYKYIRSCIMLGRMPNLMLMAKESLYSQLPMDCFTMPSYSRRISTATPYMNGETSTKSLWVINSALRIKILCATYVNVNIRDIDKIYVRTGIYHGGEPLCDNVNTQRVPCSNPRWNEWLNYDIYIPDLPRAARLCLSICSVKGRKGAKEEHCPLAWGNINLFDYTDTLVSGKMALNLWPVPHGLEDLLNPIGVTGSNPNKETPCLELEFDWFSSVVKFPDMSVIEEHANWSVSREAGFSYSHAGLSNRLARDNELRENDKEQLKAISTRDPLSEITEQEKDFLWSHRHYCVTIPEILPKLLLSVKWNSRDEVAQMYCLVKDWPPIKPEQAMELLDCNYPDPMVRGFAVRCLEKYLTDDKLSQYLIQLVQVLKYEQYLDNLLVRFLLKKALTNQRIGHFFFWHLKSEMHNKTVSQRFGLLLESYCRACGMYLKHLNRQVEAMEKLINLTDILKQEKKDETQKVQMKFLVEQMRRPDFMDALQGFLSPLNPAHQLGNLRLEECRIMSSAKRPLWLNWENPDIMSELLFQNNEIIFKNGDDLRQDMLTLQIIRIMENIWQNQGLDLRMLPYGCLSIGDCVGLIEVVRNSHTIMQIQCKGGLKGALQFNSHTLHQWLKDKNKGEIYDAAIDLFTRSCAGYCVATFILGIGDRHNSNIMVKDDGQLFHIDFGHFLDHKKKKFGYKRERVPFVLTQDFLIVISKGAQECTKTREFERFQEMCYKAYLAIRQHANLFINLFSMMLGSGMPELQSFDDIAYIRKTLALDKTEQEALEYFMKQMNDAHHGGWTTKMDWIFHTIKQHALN
PI3Kalpha, sequence (P27986 whole entry partner, the tested form may be a part, canonical isoform): as the sequence (P27986 whole entry partner, the tested form may be a part, canonical isoform) above

A word on the IC50: it is the concentration that gives 50% inhibition. Low values mean inhibition by little substance, high ones a need for much substance. For the compound `N#Cc1cnc(-c2cccc3cnccc23)nc1N1C[C@@H]2CC1CN2c1cccc(F)c1` (stereo in doubt) [Compound 1-21, 4-[(1R,4S)-5-(3-fluorophenyl)-2,5-diazabicyclo[2.2.1]hept-2-yl]-2-isoquinolin-5-ylpyrimidine-5-carbonitrile], the concentration for half-maximal inhibition (IC50) at PI3Kdelta came to 0.11 µM. The “Selectivity versus PI3Kalpha” value on PI3Kalpha is recorded as more than 10.
The like results for `C[C@@H]1CN(c2nc(-c3cnn(C)c3)ncc2C#N)CCN1C(=O)C1CCC1(F)F` (stereo partly drawn) [Compound 4-5, 4-{(3R)-4-[(2,2-difluorocyclobutyl)carbonyl]-3-methylpiperazin-1-yl}-2-(1-methyl-1H-pyrazol-4-yl)pyrimidine-5-carbonitrile] were, in that order, 0.55 µM and more than 10.
At PI3Kdelta, `C[C@@H]1CN(c2nc(Cl)c(C#N)c(-c3cnn(C)c3)n2)CCN1C(=O)C1CC1` [Compound 6-9, 4-chloro-2-[(3R)-4-(cyclopropylcarbonyl)-3-methylpiperazin-1-yl]-6-(1-methyl-1H-pyrazol-4-yl)pyrimidine-5-carbonitrile] returned a concentration for half-maximal inhibition (IC50) of 0.03 µM. For the same compound, the “Selectivity versus PI3Kalpha” value on PI3Kalpha is more than 10.
Compound `CC(C)C#Cc1cnc(N2CCN(C(=O)C3CC3)[C@H](C)C2)nc1-c1cnn(C)c1` [Compound 5-8, 2-[(3R)-4-(cyclopropylcarbonyl)-3-methylpiperazin-1-yl]-5-(3-methylbut-1-yn-1-yl)-4-(1-methyl-1H-pyrazol-4-yl)pyrimidine] gave an IC50 against PI3Kdelta of 0.012 µM. The “Selectivity versus PI3Kalpha” value at PI3Kalpha was more than 10.
For `C[C@@H]1CN(c2nc(-c3cnn(C)c3)ncc2C#N)CCN1c1cccc(F)c1` [Compound 3-3, 4-[(3R)-4-(3-fluorophenyl)-3-methylpiperazin-1-yl]-2-(1-methyl-1H-pyrazol-4-yl)pyrimidine-5-carbonitrile], in that order: 0.17 µM and more than 10.
`C[C@@H]1CN(c2nc(-c3cnn(C)c3)nc(NC(=O)NC3CCC3)c2C#N)CCN1C(=O)C1CC1` [Compound 6-17, 1-{5-cyano-6-[(3R)-4-(cyclopropylcarbonyl)-3-methylpiperazin-1-yl]-2-(1-methyl-1H-pyrazol-4-yl)pyrimidin-4-yl}-3-cyclobutylurea] registered a 50% inhibitory concentration (IC50) on PI3Kdelta of 0.005 µM. At PI3Kalpha, the “Selectivity versus PI3Kalpha” value is listed as more than 10.
In the case of `Cn1cc(-c2ncc(C#N)c(N3CC4C[C@H]3CN4C(=O)C(C)(C)C)n2)cn1` (stereo in doubt) [Compound 2-5, 4-[(1S,4R)-5-(2,2-dimethylpropanoyl)-2,5-diazabicyclo[2.2.1]hept-2-yl]-2-(1-methyl-1H-pyrazol-4-yl)pyrimidine-5-carbonitrile], the midpoint of inhibition against PI3Kdelta, the IC50, lay at 0.19 µM. Besides, at PI3Kalpha, the “Selectivity versus PI3Kalpha” value is listed as more than 10.
In the case of `C[C@@H]1CN(c2nc(-c3cnn(C)c3)nc(NCC3COC3)c2C#N)CCN1C(=O)C1CC1` [Compound 6-18, 4-[(3R)-4-(cyclopropylcarbonyl)-3-methylpiperazin-1-yl]-2-(1-methyl-1H-pyrazol-4-yl)-6-[(oxetan-3-ylmethyl)amino]pyrimidine-5-carbonitrile], half-maximal inhibition at PI3Kdelta (IC50) required 0.049 µM. The “Selectivity versus PI3Kalpha” value at PI3Kalpha is more than 10.
For `N#Cc1cnc(-c2cnn3ccccc23)nc1N1C[C@@H]2CC1CN2c1cccc(F)c1` (stereo in doubt) [Compound 1-2, 4-[(1R,4S)-5-(3-fluorophenyl)-2,5-diazabicyclo[2.2.1]hept-2-yl]-2-pyrazolo[1,5-a]pyridin-3-ylpyrimidine-5-carbonitrile], in that order: 0.051 µM and more than 10.
For the compound `C[C@@H]1CN(c2nc(-c3cnn4c3CCC4)ncc2C#N)CCN1C(=O)C1CC1` [Compound 6-15, 4-[(3R)-4-(cyclopropylcarbonyl)-3-methylpiperazin-1-yl]-2-(5,6-dihydro-4H-pyrrolo[1,2-b]pyrazol-3-yl)pyrimidine-5-carbonitrile], it took 0.083 µM to reach half-maximal inhibition against PI3Kdelta (IC50). The “Selectivity versus PI3Kalpha” value on PI3Kalpha was more than 10.
